Measurements reported in the kinase profiling compilation of Christmann-Franck et al. (2016).

Columns and labels:
Test in all cases: radiometric filter-binding kinase assay
SIK3 (human) = SIK3 (human) (UniProt Q9Y2K2)
MAP4K5 (human) = MAP4K5 (human) (UniProt Q9Y4K4)
CSNK1G2 (human) = CSNK1G2 (human) (UniProt P78368)
STK33 (human) = STK33 (human) (UniProt Q9BYT3)
NUAK1 (human) = NUAK1 (human) (UniProt O60285)
CDK9 CCNT1 (human) = CDK9 CCNT1 (human) (UniProt P50750+O60563)
TESK1 (human) = TESK1 (human) (UniProt Q15569)
PTK6 (human) = PTK6 (human) (UniProt Q13882)
ULK1 (human) = ULK1 (human) (UniProt O75385)
DDR2 (human) = DDR2 (human) (UniProt Q16832)
[1] = tested on: OXSR1 (human), O95747 [T185E]
ZAP70 (human) = ZAP70 (human) (UniProt P43403)
TTBK1 (human) = TTBK1 (human) (UniProt Q5TCY1)
STK16 (human) = STK16 (human) (UniProt O75716)
WNK1 (human) = WNK1 (human) (UniProt Q9H4A3)
TSSK1B (human) = TSSK1B (human) (UniProt Q9BXA7)
IRAK1 (human) = IRAK1 (human) (UniProt P51617)
SIK2 (human) = SIK2 (human) (UniProt Q9H0K1)
STK24 (human) = STK24 (human) (UniProt Q9Y6E0)
MAP4K3 (human) = MAP4K3 (human) (UniProt Q8IVH8)
PDGFRA (human) = PDGFRA (human) (UniProt P16234)
PRKCG (human) = PRKCG (human) (UniProt P05129)
TTBK2 (human) = TTBK2 (human) (UniProt Q6IQ55)
[2] = molecular target: PRKAA1 PRKAB2 PRKAG1 (human) (UniProt O43741+Q13131+P54619)
MAP2K6 (human) = MAP2K6 (human) (UniProt P52564)
TEK (human) = TEK (human) (UniProt Q02763)
ABL1 (human) = ABL1 (human) (UniProt P00519)
EIF2AK3 (human) = EIF2AK3 (human) (UniProt Q9NZJ5)
ULK2 (human) = ULK2 (human) (UniProt Q8IYT8)
TLK1 (human) = TLK1 (human) (UniProt Q9UKI8)

STK33 (human), sequence (Q9BYT3 whole entry, looked up): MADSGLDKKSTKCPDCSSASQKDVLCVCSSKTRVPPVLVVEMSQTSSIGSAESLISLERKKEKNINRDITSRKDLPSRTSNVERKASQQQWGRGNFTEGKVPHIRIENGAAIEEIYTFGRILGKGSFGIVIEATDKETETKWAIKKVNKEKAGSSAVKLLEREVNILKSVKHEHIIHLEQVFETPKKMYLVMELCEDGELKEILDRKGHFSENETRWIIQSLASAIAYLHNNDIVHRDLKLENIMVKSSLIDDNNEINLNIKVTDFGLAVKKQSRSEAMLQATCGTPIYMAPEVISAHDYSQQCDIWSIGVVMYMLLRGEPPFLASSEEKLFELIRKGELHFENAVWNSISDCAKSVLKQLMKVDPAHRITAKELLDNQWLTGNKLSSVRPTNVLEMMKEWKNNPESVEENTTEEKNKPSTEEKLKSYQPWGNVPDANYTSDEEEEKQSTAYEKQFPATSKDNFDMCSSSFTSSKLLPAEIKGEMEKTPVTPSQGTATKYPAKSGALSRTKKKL
ULK1 (human), sequence (O75385 whole entry, looked up): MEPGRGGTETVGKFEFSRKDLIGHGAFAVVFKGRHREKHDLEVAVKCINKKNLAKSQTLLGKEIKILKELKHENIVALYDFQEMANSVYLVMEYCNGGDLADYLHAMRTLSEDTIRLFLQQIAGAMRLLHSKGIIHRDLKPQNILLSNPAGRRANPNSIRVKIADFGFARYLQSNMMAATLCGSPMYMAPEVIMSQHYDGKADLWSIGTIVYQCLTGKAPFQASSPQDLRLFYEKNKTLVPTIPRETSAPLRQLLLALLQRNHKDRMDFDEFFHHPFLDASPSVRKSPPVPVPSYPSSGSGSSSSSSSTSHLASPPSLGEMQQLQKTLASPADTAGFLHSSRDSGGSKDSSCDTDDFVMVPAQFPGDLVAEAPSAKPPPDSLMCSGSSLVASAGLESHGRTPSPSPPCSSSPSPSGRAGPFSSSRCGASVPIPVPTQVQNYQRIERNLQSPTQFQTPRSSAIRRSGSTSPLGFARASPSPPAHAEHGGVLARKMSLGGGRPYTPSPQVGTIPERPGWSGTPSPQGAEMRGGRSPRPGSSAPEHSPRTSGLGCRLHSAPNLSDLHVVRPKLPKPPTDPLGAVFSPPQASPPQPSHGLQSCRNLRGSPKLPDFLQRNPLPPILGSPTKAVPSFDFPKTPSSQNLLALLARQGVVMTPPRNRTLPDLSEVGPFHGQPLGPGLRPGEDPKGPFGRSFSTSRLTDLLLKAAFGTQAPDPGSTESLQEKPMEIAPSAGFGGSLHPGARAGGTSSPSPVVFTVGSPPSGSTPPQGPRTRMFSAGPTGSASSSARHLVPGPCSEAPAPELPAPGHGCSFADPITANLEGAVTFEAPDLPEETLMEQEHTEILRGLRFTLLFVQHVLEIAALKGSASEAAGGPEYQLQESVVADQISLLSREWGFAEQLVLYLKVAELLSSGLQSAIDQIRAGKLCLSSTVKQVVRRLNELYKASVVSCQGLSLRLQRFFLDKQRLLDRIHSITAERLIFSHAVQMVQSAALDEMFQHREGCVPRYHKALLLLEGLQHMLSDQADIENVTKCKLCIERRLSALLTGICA
TSSK1B (human), sequence (Q9BXA7 whole entry, looked up): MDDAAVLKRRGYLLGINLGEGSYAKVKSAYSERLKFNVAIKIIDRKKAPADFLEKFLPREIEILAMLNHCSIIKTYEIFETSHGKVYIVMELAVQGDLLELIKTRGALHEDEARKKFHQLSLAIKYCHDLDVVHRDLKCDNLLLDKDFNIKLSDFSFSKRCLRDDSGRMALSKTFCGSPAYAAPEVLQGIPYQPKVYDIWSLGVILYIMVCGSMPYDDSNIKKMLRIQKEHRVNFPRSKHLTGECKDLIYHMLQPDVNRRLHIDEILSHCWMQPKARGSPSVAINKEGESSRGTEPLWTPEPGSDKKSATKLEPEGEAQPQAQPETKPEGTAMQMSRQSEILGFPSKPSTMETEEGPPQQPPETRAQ
WNK1 (human), sequence (Q9H4A3 whole entry, looked up): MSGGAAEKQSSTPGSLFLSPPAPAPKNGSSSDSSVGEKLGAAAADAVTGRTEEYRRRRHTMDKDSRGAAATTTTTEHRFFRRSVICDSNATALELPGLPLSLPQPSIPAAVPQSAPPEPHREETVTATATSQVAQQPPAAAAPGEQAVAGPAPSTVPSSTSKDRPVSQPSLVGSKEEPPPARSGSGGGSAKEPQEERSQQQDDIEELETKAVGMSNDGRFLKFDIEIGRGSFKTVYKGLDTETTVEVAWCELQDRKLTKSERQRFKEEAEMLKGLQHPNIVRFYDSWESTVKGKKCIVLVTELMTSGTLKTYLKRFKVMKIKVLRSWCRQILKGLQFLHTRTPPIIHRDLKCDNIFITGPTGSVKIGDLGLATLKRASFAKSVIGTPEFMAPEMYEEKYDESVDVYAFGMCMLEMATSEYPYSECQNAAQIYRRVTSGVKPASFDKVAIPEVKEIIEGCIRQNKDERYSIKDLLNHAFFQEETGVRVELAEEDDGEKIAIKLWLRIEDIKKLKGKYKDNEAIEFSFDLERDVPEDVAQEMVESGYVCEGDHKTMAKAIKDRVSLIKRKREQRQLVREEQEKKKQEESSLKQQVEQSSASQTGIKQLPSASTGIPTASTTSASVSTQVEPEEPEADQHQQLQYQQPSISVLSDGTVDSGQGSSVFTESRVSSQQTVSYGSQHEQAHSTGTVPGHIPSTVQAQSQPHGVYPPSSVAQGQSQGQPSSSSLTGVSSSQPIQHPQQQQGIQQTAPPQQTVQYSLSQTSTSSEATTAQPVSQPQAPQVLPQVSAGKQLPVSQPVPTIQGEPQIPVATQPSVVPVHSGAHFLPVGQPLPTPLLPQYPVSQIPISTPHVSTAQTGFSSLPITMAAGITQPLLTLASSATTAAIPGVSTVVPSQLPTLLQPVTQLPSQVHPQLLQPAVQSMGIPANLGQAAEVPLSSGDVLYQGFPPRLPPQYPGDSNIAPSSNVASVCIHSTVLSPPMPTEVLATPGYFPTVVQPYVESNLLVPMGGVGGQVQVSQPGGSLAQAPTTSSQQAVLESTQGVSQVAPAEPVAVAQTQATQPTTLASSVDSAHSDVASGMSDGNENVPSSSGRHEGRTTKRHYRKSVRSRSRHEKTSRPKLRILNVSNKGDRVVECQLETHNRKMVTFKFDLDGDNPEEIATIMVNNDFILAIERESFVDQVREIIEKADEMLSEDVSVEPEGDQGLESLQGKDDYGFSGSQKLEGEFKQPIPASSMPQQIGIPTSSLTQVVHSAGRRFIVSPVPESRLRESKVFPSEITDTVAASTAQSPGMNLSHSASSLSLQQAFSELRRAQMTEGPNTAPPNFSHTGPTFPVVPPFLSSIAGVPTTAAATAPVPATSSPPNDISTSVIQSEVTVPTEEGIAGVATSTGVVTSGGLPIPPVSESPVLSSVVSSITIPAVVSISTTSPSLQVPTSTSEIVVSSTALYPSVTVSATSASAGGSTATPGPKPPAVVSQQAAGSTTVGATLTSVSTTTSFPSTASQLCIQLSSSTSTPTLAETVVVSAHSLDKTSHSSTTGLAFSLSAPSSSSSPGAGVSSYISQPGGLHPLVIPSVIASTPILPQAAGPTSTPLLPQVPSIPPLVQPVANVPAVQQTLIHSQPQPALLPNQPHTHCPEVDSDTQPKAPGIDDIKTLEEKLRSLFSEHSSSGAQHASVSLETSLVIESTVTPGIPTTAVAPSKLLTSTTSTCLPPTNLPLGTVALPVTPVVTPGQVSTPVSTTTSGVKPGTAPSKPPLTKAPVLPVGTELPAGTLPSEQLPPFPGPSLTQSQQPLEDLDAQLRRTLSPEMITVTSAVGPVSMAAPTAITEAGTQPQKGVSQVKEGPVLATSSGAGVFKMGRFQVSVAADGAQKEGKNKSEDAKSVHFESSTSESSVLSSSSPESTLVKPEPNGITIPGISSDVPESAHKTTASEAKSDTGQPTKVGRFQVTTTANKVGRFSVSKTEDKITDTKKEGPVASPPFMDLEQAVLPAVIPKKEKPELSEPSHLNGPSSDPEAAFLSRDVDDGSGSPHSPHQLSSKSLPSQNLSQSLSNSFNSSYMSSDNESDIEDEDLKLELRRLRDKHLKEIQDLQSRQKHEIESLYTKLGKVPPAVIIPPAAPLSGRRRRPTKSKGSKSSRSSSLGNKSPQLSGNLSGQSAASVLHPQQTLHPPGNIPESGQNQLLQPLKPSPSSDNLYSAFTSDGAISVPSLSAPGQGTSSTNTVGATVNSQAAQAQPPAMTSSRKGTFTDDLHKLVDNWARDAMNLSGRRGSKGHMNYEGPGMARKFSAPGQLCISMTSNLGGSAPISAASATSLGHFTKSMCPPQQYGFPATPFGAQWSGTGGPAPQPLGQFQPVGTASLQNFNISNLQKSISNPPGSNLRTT
STK24 (human), sequence (Q9Y6E0 whole entry, looked up): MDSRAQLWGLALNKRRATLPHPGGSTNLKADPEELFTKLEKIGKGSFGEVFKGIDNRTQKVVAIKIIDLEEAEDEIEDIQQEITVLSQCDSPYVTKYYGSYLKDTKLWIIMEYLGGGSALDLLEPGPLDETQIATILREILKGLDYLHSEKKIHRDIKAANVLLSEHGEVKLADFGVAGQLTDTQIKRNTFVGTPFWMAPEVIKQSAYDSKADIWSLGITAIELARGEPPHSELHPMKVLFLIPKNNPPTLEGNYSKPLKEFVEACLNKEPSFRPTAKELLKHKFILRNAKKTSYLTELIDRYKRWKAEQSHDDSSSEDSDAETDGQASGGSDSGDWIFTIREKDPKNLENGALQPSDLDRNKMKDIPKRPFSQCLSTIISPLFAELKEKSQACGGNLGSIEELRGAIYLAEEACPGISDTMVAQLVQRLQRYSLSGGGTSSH
STK16 (human), sequence (O75716 whole entry, looked up): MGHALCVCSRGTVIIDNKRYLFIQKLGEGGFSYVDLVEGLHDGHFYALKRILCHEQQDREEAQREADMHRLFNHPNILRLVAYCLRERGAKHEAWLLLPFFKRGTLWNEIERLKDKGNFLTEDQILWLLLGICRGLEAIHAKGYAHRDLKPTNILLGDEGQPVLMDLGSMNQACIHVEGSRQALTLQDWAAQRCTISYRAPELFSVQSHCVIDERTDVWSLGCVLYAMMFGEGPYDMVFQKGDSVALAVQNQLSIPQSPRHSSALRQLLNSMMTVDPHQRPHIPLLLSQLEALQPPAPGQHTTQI

C=C1C(=O)OC2C1CC/C(C)=C/CCC1(C)OC21 (centres undefined)
residual activity (SIK3 (human); compound 1.0 µM): 110%
residual activity (SIK3 (human); compound 5.0 µM): 104%
residual activity (MAP4K5 (human); compound 1.0 µM): 116%
residual activity (MAP4K5 (human); compound 5.0 µM): 97%
residual activity (CSNK1G2 (human); compound 1.0 µM): 124%
residual activity (CSNK1G2 (human); compound 5.0 µM): 101%
residual activity (STK33 (human); compound 1.0 µM): 117%
residual activity (STK33 (human); compound 5.0 µM): 102%
residual activity (NUAK1 (human); compound 1.0 µM): 130%
residual activity (NUAK1 (human); compound 5.0 µM): 111%
residual activity (CDK9 CCNT1 (human); compound 1.0 µM): 119%
residual activity (CDK9 CCNT1 (human); compound 5.0 µM): 101%
residual activity (TESK1 (human); compound 1.0 µM): 106%
residual activity (TESK1 (human); compound 5.0 µM): 112%
residual activity (PTK6 (human); compound 1.0 µM): 107%
residual activity (PTK6 (human); compound 5.0 µM): 120%
residual activity (ULK1 (human); compound 1.0 µM): 104%
residual activity (ULK1 (human); compound 5.0 µM): 110%
residual activity (DDR2 (human); compound 1.0 µM): 105%
residual activity (DDR2 (human); compound 5.0 µM): 107%
residual activity ([1]; compound 1.0 µM): 115%
residual activity (ZAP70 (human); compound 1.0 µM): 99%
residual activity (ZAP70 (human); compound 5.0 µM): 104%
residual activity (TTBK1 (human); compound 1.0 µM): 110%
residual activity (TTBK1 (human); compound 5.0 µM): 103%
residual activity (STK16 (human); compound 1.0 µM): 121%
residual activity (STK16 (human); compound 5.0 µM): 106%
residual activity (WNK1 (human); compound 1.0 µM): 112%
residual activity (WNK1 (human); compound 5.0 µM): 100%
residual activity (TSSK1B (human); compound 1.0 µM): 103%
residual activity (TSSK1B (human); compound 5.0 µM): 93%
residual activity (IRAK1 (human); compound 1.0 µM): 96%
residual activity (IRAK1 (human); compound 5.0 µM): 102%
residual activity (SIK2 (human); compound 1.0 µM): 108%
residual activity (SIK2 (human); compound 5.0 µM): 93%
residual activity (STK24 (human); compound 1.0 µM): 101%
residual activity (STK24 (human); compound 5.0 µM): 88%
residual activity (MAP4K3 (human); compound 1.0 µM): 95%
residual activity (MAP4K3 (human); compound 5.0 µM): 88%
residual activity (PDGFRA (human); compound 5.0 µM): 109%
residual activity (PRKCG (human); compound 1.0 µM): 120%
residual activity (PRKCG (human); compound 5.0 µM): 121%
residual activity (TTBK2 (human); compound 1.0 µM): 125%
residual activity (TTBK2 (human); compound 5.0 µM): 100%
residual activity ([2]; compound 1.0 µM): 111%
residual activity ([2]; compound 5.0 µM): 107%
residual activity (MAP2K6 (human); compound 1.0 µM): 96%
residual activity (MAP2K6 (human); compound 5.0 µM): 92%
residual activity (TEK (human); compound 1.0 µM): 99%
residual activity (TEK (human); compound 5.0 µM): 80%
residual activity (ABL1 (human); compound 1.0 µM): 119%
residual activity (ABL1 (human); compound 5.0 µM): 110%
residual activity (EIF2AK3 (human); compound 1.0 µM): 111%
residual activity (EIF2AK3 (human); compound 5.0 µM): 123%
residual activity (ULK2 (human); compound 1.0 µM): 96%
residual activity (ULK2 (human); compound 5.0 µM): 121%
residual activity (TLK1 (human); compound 1.0 µM): 108%
residual activity (TLK1 (human); compound 5.0 µM): 115%

CC1=C(CO)C(=O)O[C@@H]([C@@H](C)[C@H]2CC[C@H]3[C@@H]4C[C@H]5O[C@]56[C@@H](O)C=CC(=O)[C@]6(C)C4CC[C@]23C)C1 (some centres undefined)
residual activity (SIK3 (human); compound 0.1 µM): 105%
residual activity (SIK3 (human); compound 1.0 µM): 106%
residual activity (SIK3 (human); compound 10.0 µM): 94%
residual activity (MAP4K5 (human); compound 0.1 µM): 106%
residual activity (MAP4K5 (human); compound 1.0 µM): 110%
residual activity (MAP4K5 (human); compound 10.0 µM): 94%
residual activity (CSNK1G2 (human); compound 0.1 µM): 109%
residual activity (CSNK1G2 (human); compound 1.0 µM): 104%
residual activity (CSNK1G2 (human); compound 10.0 µM): 103%
residual activity (STK33 (human); compound 0.1 µM): 116%
residual activity (STK33 (human); compound 10.0 µM): 120%
residual activity (NUAK1 (human); compound 0.1 µM): 112%
residual activity (NUAK1 (human); compound 1.0 µM): 121%
residual activity (NUAK1 (human); compound 10.0 µM): 110%
residual activity (CDK9 CCNT1 (human); compound 0.1 µM): 94%
residual activity (CDK9 CCNT1 (human); compound 1.0 µM): 97%
residual activity (CDK9 CCNT1 (human); compound 10.0 µM): 107%
residual activity (TESK1 (human); compound 0.1 µM): 109%
residual activity (TESK1 (human); compound 1.0 µM): 114%
residual activity (TESK1 (human); compound 10.0 µM): 104%
residual activity (PTK6 (human); compound 0.1 µM): 109%
residual activity (PTK6 (human); compound 1.0 µM): 123%
residual activity (ULK1 (human); compound 0.1 µM): 108%
residual activity (ULK1 (human); compound 1.0 µM): 115%
residual activity (ULK1 (human); compound 10.0 µM): 111%
residual activity (DDR2 (human); compound 0.1 µM): 105%
residual activity (DDR2 (human); compound 1.0 µM): 100%
residual activity (DDR2 (human); compound 10.0 µM): 94%
residual activity ([1]; compound 0.1 µM): 128%
residual activity ([1]; compound 1.0 µM): 109%
residual activity ([1]; compound 10.0 µM): 125%
residual activity (ZAP70 (human); compound 1.0 µM): 113%
residual activity (TTBK1 (human); compound 0.1 µM): 100%
residual activity (TTBK1 (human); compound 1.0 µM): 118%
residual activity (TTBK1 (human); compound 10.0 µM): 95%
residual activity (STK16 (human); compound 10.0 µM): 126%
residual activity (WNK1 (human); compound 0.1 µM): 117%
residual activity (WNK1 (human); compound 1.0 µM): 111%
residual activity (WNK1 (human); compound 10.0 µM): 113%
residual activity (TSSK1B (human); compound 0.1 µM): 100%
residual activity (TSSK1B (human); compound 1.0 µM): 102%
residual activity (TSSK1B (human); compound 10.0 µM): 78%
residual activity (IRAK1 (human); compound 0.1 µM): 101%
residual activity (IRAK1 (human); compound 1.0 µM): 99%
residual activity (IRAK1 (human); compound 10.0 µM): 100%
residual activity (SIK2 (human); compound 0.1 µM): 82%
residual activity (SIK2 (human); compound 1.0 µM): 78%
residual activity (SIK2 (human); compound 10.0 µM): 66%
residual activity (STK24 (human); compound 0.1 µM): 111%
residual activity (STK24 (human); compound 1.0 µM): 126%
residual activity (STK24 (human); compound 10.0 µM): 133%
residual activity (MAP4K3 (human); compound 0.1 µM): 81%
residual activity (MAP4K3 (human); compound 1.0 µM): 85%
residual activity (MAP4K3 (human); compound 10.0 µM): 84%
residual activity (PDGFRA (human); compound 1.0 µM): 117%
residual activity (PDGFRA (human); compound 10.0 µM): 121%
residual activity (PRKCG (human); compound 0.1 µM): 119%
residual activity (PRKCG (human); compound 1.0 µM): 112%
residual activity (PRKCG (human); compound 10.0 µM): 102%
residual activity (TTBK2 (human); compound 0.1 µM): 108%
residual activity (TTBK2 (human); compound 1.0 µM): 105%
residual activity (TTBK2 (human); compound 10.0 µM): 112%
residual activity ([2]; compound 0.1 µM): 107%
residual activity ([2]; compound 1.0 µM): 120%
residual activity ([2]; compound 10.0 µM): 112%
residual activity (MAP2K6 (human); compound 0.1 µM): 95%
residual activity (MAP2K6 (human); compound 10.0 µM): 109%
residual activity (TEK (human); compound 1.0 µM): 98%
residual activity (TEK (human); compound 10.0 µM): 83%
residual activity (ABL1 (human); compound 0.1 µM): 101%
residual activity (ABL1 (human); compound 1.0 µM): 110%
residual activity (ABL1 (human); compound 10.0 µM): 106%
residual activity (EIF2AK3 (human); compound 0.1 µM): 129%
residual activity (EIF2AK3 (human); compound 1.0 µM): 108%
residual activity (EIF2AK3 (human); compound 10.0 µM): 115%
residual activity (ULK2 (human); compound 0.1 µM): 92%
residual activity (ULK2 (human); compound 1.0 µM): 96%
residual activity (ULK2 (human); compound 10.0 µM): 90%
residual activity (TLK1 (human); compound 0.1 µM): 101%
residual activity (TLK1 (human); compound 1.0 µM): 103%
residual activity (TLK1 (human); compound 10.0 µM): 98%
